Results as given in patent publication US20040116420A1 (priority 2001, published 2004).

Experiments:
[1] = system: HSV-1; experiment: Antiviral activity, HSV-1 in Vero cells, plaque method; assay type: cell-based; settings: Human alphaherpesvirus 1, 20 hours, 90% inhibition of plaque formation
Summary of the method: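 This is a virus-yield read-out. The culture medium was frozen at −80° C and thawed, and the plaques it formed were counted. It came from Vero monolayers infected with 50,000 pfu HSV-1 and then exposed to the compound for 20 h at 37° C. EC90 is the concentration inhibiting 90% of plaque formation relative to the untreated infected control.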

[2] = system: Vero cells; experiment: Cytotoxicity, Vero cells, Alamar Blue; assay type: cell-based; settings: 25 μM, 20 hours
Method: An Assay Method for Cytotoxicity
The Vero cells were sown on a 96-well plate and then cultured overnight. The culture supernatant was removed, and 200 μl of 2% FBS-DMEM comprising 25 μM of the test compound was added. In this case, a substance to which 2% FBS-DMEM not comprising any test compound had been added was determined as a control. These cells were incubated in the presence of 5% CO2 at 37° C. for 20 hours. Alamar Blue (20 μl) was added to the cells, and cells were incubated for about 6 hours until the color of the control changed. The ratio of the absorbance was assayed using a microplate reader for absorption, and the value relative to the control was determined to be the ratio of living cells.

[3] = target: T1, HSV-1 protease (Human herpesvirus 1, UniProt P10210); experiment: Enzymatic assay for HSV-1 protease (assembly) inhibitor, fluorescence polarization; assay type: biochemical; settings: read-out: HSV-1 Enzyme inhibition IC50
T1 construct: 6xHis (N); made in house; host or cells: baculovirus expression system
T1 sequence (P10210 1-247): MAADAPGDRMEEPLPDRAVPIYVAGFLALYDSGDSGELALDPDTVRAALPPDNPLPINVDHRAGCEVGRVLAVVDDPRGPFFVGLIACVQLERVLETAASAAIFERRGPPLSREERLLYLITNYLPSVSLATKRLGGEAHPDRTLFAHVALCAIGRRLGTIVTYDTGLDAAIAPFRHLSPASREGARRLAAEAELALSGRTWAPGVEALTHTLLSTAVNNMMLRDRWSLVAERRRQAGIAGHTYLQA
Summary of the method: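 Fluorescence polarization read-out: after avidin stop, cleavage of a biotinylated DTAF-labelled release-site peptide by recombinant N-His6 HSV-1 protease was compared with no-inhibitor wells. Enzyme and compound were preincubated 30 min, then substrate reacted 60 min, all at room temperature, pH 7.4 citrate buffer with TCEP.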

| EC90 [1] | IC50 [3] | Structure (SMILES) | Cell viability (% of control) [2] |
| --- | --- | --- | --- |
| > 12.5 µM | 2.9 µM | Cc1c(NC(=O)OC(C)(C)C)ccc2nc(N3CCCC[C@H]3C(=O)NCCc3ccccn3)oc(=O)c12 [Compound No.105, {5-Methyl-4-oxo-2-[2S-(2-pyridin-2-ylethylcarbamoyl)-piperidin-1-yl]-4H-benzo[d][1,3]oxazin-6-yl}-carbamic acid tert-butyl ester] | 55.6% |
| > 25 µM | 1.6 µM | Cc1c(NC(=O)OC(C)(C)C)ccc2nc(NC(C)(C)C(=O)NCCc3ccccn3)oc(=O)c12 [Compound No.35, {5-Methyl-2-[1-methyl-1-(2-pyridin-2-ylethylcarbamoyl)-ethylamino]-4-oxo-4H-benzo[d][1,3]oxazin-6-yl}-carbamic acid tert-butyl ester] | 110.0% |
| 3.6 µM | 1.7 µM | CCCCc1ccc(C(=O)Nc2ccc3nc(NC(C)(C)C(=O)N(C)CCc4ccccn4)oc(=O)c3c2C)cc1 [Compound No.167, 4-Butyl-N-(5-methyl-2-{1-methyl-1-[methyl-(2-pyridin-2-yl-ethyl)-carbamoyl]-ethylamino}-4-oxo-4H-benzo[d][1,3]oxazin-6-yl)-benzamide] | −6.1% |
| < 3.2 µM | 1.7 µM | Cc1c(NC(=O)OC(C)(C)C)ccc2nc(N[C@@H](Cc3ccccc3)C(=O)N(C)Cc3ccccn3)oc(=O)c12 [Compound No.57, {5-Methyl-2-[1S-(methyl-pyridin-2-ylmethyl-carbamoyl)-2-phenyl-ethylamino]-4-oxo-4H-benzo[d][1,3]oxazin-6-yl}-carbamic acid tert-butyl ester] | 71.3% |
| 10.6 µM | 1.5 µM | Cc1c(NC(=O)c2ccc(F)cc2)ccc2nc(NC(C)(C)C(=O)N(C)CCc3ccccn3)oc(=O)c12 [Compound No.149, 4-Fluoro-N-(5-methyl-2-{1-methyl-1-[methyl-(2-pyridin-2-yl-ethyl)-carbamoyl]-ethylamino}-4-oxo-4H-benzo[d][1,3]oxazin-6-yl)-benzamide] | 65.4% |
| 9.1 µM | 0.7 µM | Cc1c(NC(=O)OC(C)(C)C)ccc2nc(N[C@@H](C)C(=O)N(C)CCc3ccccn3)oc(=O)c12 [Compound No.43, (5-Methyl-2-{1S-[methyl-(2-pyridin-2-yl-ethyl)-carbamoyl]-ethylamino}-4-oxo-4H-benzo[d][1,3]oxazin-6-yl)-carbamic acid tert-butyl ester] | 104.0% |
| 5.9 µM | 7.4 µM | Cc1c(NC(=O)OC(C)(C)C)ccc2nc(N[C@@H](CC3CCCCC3)C(=O)N(C)CCc3ccncc3)oc(=O)c12 [Compound No.55, (2-{2-Cyclohexyl-1S-[methyl-(2-pyridin-4-yl-ethyl)-carbamoyl]-ethylamino}-5-methyl-4-oxo-4H-benzo[d][1,3]oxazin-6-yl)-carbamic acid tert-butyl ester] | 43.8% |
| 4.1 µM | 3 µM | Cc1c(NC(=O)c2ccccc2Br)ccc2nc(NC(C)(C)C(=O)N(C)CCc3ccccn3)oc(=O)c12 [compound 199, 2-Bromo-N-(5-methyl-2-{1-methyl-1-[methyl-(2-pyridin-2-yl-ethyl)-carbamoyl]-ethylamino}-4-oxo-4H-benzo[d][1,3]oxazin-6-yl)-benzamide] | 56.9% |
| 13 µM | 10.1 µM | Cc1c(NC(=O)OC(C)(C)C)ccc2nc(N[C@H](C(=O)NCc3cccnc3)C(C)(C)C)oc(=O)c12 [Compound No.33, (2-{2,2-dimethyl-1S-[(pyridin-3-ylmethyl)-carbamoyl]-propylamino}-5-methyl-4-oxo-4H-benzo[d][1,3]oxazin-6-yl)-carbamic acid tert-butyl ester] | 105.0% |
| 11.8 µM | 9.7 µM | Cc1c(NC(=O)OC(C)(C)C)ccc2nc(N3Cc4ccccc4C[C@H]3C(=O)N(C)CCc3cccnc3)oc(=O)c12 [Compound No.100, (5-Methyl-2-{3S-[methyl-(2-pyridin-3-yl-ethyl)-carbamoyl]-3,4-dihydro-1H-isoquinolin-2-yl}-4-oxo-4H-benzo[d][1,3]oxazin-6-yl)-carbamic acid tert-butyl ester] | 44.1% |
| > 12.5 µM | 1.4 µM | Cc1c(NC(=O)c2ccco2)ccc2nc(NC(C)(C)C(=O)N(C)CCc3ccccn3)oc(=O)c12 [Compound No.139, Furan-2-carboxylic acid (5-methyl-2-{1-methyl-1-[methyl-(2-pyridin-2-yl-ethyl)-carbamoyl]-ethylamino}-4-oxo-4H-benzo[d][1,3]oxazin-6-yl)-amide] | 90.7% |
| > 12.5 µM | 1.3 µM | Cc1c(NC(=O)c2cccc(C(Cl)Cl)c2)ccc2nc(NC(C)(C)C(=O)N(C)CCc3ccccn3)oc(=O)c12 [Compound No.183, 3-Dichloromethyl-N-(5-methyl-2-{1-methyl-1-[methyl-(2-pyridin-2-yl-ethyl)-carbamoyl]-ethylamino}-4-oxo-4H-benzo[d][1,3]oxazin-6-yl)-benzamide] | 101.0% |
| 3.6 µM | 1.3 µM | Cc1c(NC(=O)c2ccc(C(C)(C)C)cc2)ccc2nc(NC(C)(C)C(=O)N(C)CCc3ccccn3)oc(=O)c12 [Compound No.168, 4-tert-Butyl-N-(5-methyl-2-{1-methyl-1-[methyl-(2-pyridin-2-yl-ethyl)-carbamoyl]-ethylamino}-4-oxo-4H-benzo[d][1,3]oxazin-6-yl)-benzamide] | 16.8% |
| 6.2 µM | 2.6 µM | Cc1c(NC(=O)c2ccc(Cl)cc2)ccc2nc(NC(C)(C)C(=O)N(C)CCc3ccccn3)oc(=O)c12 [Compound No.153, 4-Chloro-N-(5-methyl-2-{1-methyl-1-[methyl-(2-pyridin-2-yl-ethyl)-carbamoyl]-ethylamino}-4-oxo-4H-benzo[d][1,3]oxazin-6-yl)-benzamide] | 48.6% |
| 9 µM | 1.2 µM | Cc1c(NC(=O)c2cccc(OC(F)(F)F)c2)ccc2nc(NC(C)(C)C(=O)N(C)CCc3ccccn3)oc(=O)c12 [Compound No.172, N-(5-Methyl-2-{1-methyl-1-[methyl-(2-pyridin-2-yl-ethyl)-carbamoyl]-ethylamino}-4-oxo-4H-benzo[d][1,3]oxazin-6-yl)-3-trifluoromethoxy-benzamide] | 17.4% |
| 7.8 µM | 1.5 µM | Cc1c(NC(=O)c2cccc(CCl)c2)ccc2nc(NC(C)(C)C(=O)N(C)CCc3ccccn3)oc(=O)c12 [Compound No.170, 3-Chloromethyl-N-(5-methyl-2-{1-methyl-1-[methyl-(2-pyridin-2-yl-ethyl)-carbamoyl]-ethylamino}-4-oxo-4H-benzo [d][1,3]oxazin-6-yl)-benzamide] | 13.6% |
| 10.4 µM | 1.3 µM | Cc1c(NC(=O)c2ccc([N+](=O)[O-])cc2)ccc2nc(NC(C)(C)C(=O)N(C)CCc3ccccn3)oc(=O)c12 [Compound No.142, N-(5-Methyl-2-{1-methyl-1-[methyl-(2-pyridin-2-yl-ethyl)-carbamoyl]-ethylamino}-4-oxo-4H-benzo[d][1,3]oxazin-6-yl)-4-nitro-benzamide] | 61.0% |
